Experimental data published in US20250059175A1, “Mutant Pi3k-Alpha Inhibitors And Their Use As Pharmaceuticals” (Prelude Therapeutics Incorporated, priority 2023, published 2025).

The molecules below were run on phosphorylation of AKT on Ser473 (PI3K pathway) in T-47D (heterozygous PIK3CA H1047R) cell line (assay: PI3K pathway activation assay (pAKT Ser473 HTRF), T-47D cells). Details: Homo sapiens, T47D, 2 h; T-47D (heterozygous PIK3CA H1047R) cells, two hours of treatment, pAKT Ser473 HTRF; read-out: T47D pAKT IC50.
Format: cell-based
Description: The inhibitory activity of the compounds of the disclosure was evaluated by measuring phosphorylation of AKT on Ser473 as a readout of the PI3K pathway using HTRF (CisBio catalog number: 64AKSPE). These studies were conducted in the T-47D (heterozygous PIK3CA H1047R) and SKBR3 (PIK3CA WT) cell lines. Cells were maintained in a 37° C. incubator at 5% CO2 in the following media: T-47D: RPMI 1640, ATCC© Modification (Gibco, A10491-01) supplemented with 10% v/v FBS (Gibco, 26140-079), 1% penicillin streptomycin (Gibco, 15140-122), and 7.4 ug/mL insulin (MilliporeSigma, I9278); SKBR3: McCoy's 5a (Modified) Medium (Gibco, 16600-082) supplemented with 10% v/v FBS (Gibco, 26140-079). Cells were seeded in 384-well plates at a density of 4,000 cells/well. Compounds dissolved in DMSO were added using a digital dispense (D300E, Tecan) 10-point serial dilution. After two hours of treatment, cells were lysed for thirty minutes and then incubated with detection reagents per HTRF kit material and manufacturer's instructions. Fluorescence signal was measured with a multimode plate reader (Envision 2105, Perkin Elmer). Fluorescent signal was normalized to background and DMSO controls to obtain percent inhibition/activity for each compound.

Row | SMILES | IC50 [nM]
1 | Cc1cc(C(C)Nc2ccc(C(F)(F)F)nc2C(=O)O)nc(N2C(=O)OC[C@@H]2Cc2ccccc2)c1 (single isomer, unassigned) [Example 15] | 1000 to 10000
2 | Cc1cc(C(C)Nc2ccccc2C(=O)O)nc(N2C(=O)OC[C@@H]2Cc2ccccc2)c1 (stereo partly drawn) [Example 17, 2-((1-(6-((S)-4-Benzyl-2-oxooxazolidin-3-yl)-4-methylpyridin-2-yl)ethyl)amino)benzoic acid] | 1000 to 10000
3 | Cc1cc([C@@H](C)Nc2ccc(Cl)nc2C(=O)O)cc(N2C(=O)OC[C@@H]2Cc2ccc(Br)cc2)c1 [Example 9, 3-(((R)-1-(3-((S)-4-(4-Bromobenzyl)-2-oxooxazolidin-3-yl)-5-methylphenyl)ethyl)amino)-6-chloropicolinic acid] | 1000 to 10000
4 | Cc1cc([C@@H](C)Nc2ccc(Cl)nc2C(=O)O)nc(N2C(=O)CCC2Cc2ccccc2)c1 (stereo partly drawn) [Example 55, 3-(((1R)-1-(6-(2-benzyl-5-oxopyrrolidin-1-yl)-4-methylpyridin-2-yl)ethyl)amino)-6-chloropicolinic acid] | 1000 to 10000
5 | CON(C)C(=O)c1ccc(C[C@H]2COC(=O)N2c2cc(C)cc([C@@H](C)Nc3ccc(Cl)nc3C(=O)O)n2)cc1 [Example 52, 6-Chloro-3-(((R)-1-(6-((S)-4-(4-(methoxy(methyl)carbamoyl)benzyl)-2-oxooxazolidin-3-yl)-4-methylpyridin-2-yl)ethyl)amino)picolinic acid] | 100 to 1000
6 | CC(Nc1ccc(Cl)nc1C(=O)O)c1cc(F)cc(N2C(=O)OC[C@@H]2Cc2ccccc2)c1 (stereo partly drawn) [Example 4, 3-((1-(3-((S)-4-Benzyl-2-oxooxazolidin-3-yl)-5-fluorophenyl)ethyl)amino)-6-chloropicolinic acid] | 100 to 1000
7 | Cc1cc([C@@H](C)Nc2ccc(Cl)nc2C(=O)O)nc(N2C(=O)OCC[C@@H]2Cc2ccccc2)c1 [Example 56, 3-(((R)-1-(6-((S)-4-Benzyl-2-oxo-1,3-oxazinan-3-yl)-4-methylpyridin-2-yl)ethyl)amino)-6-chloropicolinic acid] | 100 to 1000

Now from value to molecule:

Row | IC50 [nM] | SMILES
8 | 100 to 1000 | Cc1cc([C@@H](C)Nc2ccc(Cl)nc2C(=O)O)nc(N2C(=O)OC[C@@H]2Cc2cn(C)nc2F)c1 [Example 36, 6-Chloro-3-(((R)-1-(6-((S)-4-((3-fluoro-1-methyl-1H-pyrazol-4-yl)methyl)-2-oxooxazolidin-3-yl)-4-methylpyridin-2-yl)ethyl)amino)picolinic acid]
9 | 100 to 1000 | Cc1cc([C@@H](C)Nc2ccc(Cl)nc2C(=O)O)nc(N2C(=O)OC[C@@H]2Cc2cn(C)nc2C)c1 [Example 35, 6-Chloro-3-(((R)-1-(6-((S)-4-((1,3-dimethyl-1H-pyrazol-4-yl)methyl)-2-oxooxazolidin-3-yl)-4-methylpyridin-2-yl)ethyl)amino)picolinic acid]
10 | 100 to 1000 | Cc1cc([C@@H](C)Nc2ccc(Cl)nc2C(=O)O)nc(N2C(=O)OC[C@@H]2Cc2cnn(C)c2)c1 [Example 32, 6-Chloro-3-(((R)-1-(4-methyl-6-((S)-4-((1-methyl-1H-pyrazol-4-yl)methyl)-2-oxooxazolidin-3-yl)pyridin-2-yl)ethyl)amino)picolinic acid]
11 | 100 to 1000 | Cc1cc([C@@H](C)Nc2ccc(Cl)nc2C(=O)O)nc(N2C(=O)OC[C@]2(C)Cc2ccccc2)c1 [Example 54, 3-(((R)-1-(6-((S)-4-Benzyl-4-methyl-2-oxooxazolidin-3-yl)-4-methylpyridin-2-yl)ethyl)amino)-6-chloropicolinic acid]
12 | 100 to 1000 | Cc1cc([C@@H](C)Nc2ccc(Cl)nc2C(=O)O)nc(N2C(=O)OC[C@@H]2Cc2ccncc2)c1 [Example 28, 6-Chloro-3-(((R)-1-(4-methyl-6-((S)-2-oxo-4-(pyridin-4-ylmethyl)oxazolidin-3-yl)pyridin-2-yl)ethyl)amino)picolinic acid]
13 | 100 to 1000 | Cc1cc([C@@H](C)Nc2ccc(Cl)nc2C(=O)O)nc(N2C(=O)OC[C@@H]2Cc2nn(C)c3ccccc23)c1 [Example 38, 6-Chloro-3-(((R)-1-(4-methyl-6-((S)-4-((1-methyl-1H-indazol-3-yl)methyl)-2-oxooxazolidin-3-yl)pyridin-2-yl)ethyl)amino)picolinic acid]
14 | 100 to 1000 | Cc1cc([C@@H](C)Nc2ccc(Cl)nc2C(=O)O)nc(N2C(=O)OC[C@@H]2Cc2c[nH]c3ccccc23)c1 [Example 50, 3-(((R)-1-(6-((S)-4-((1H-Indol-3-yl)methyl)-2-oxooxazolidin-3-yl)-4-methylpyridin-2-yl)ethyl)amino)-6-chloropicolinic acid]
15 | 100 to 1000 | Cc1cc([C@@H](C)Nc2ccc(Cl)nc2C(=O)O)nc(N2C(=O)COC[C@@H]2Cc2ccccc2)c1 [Example 57, 3-(((R)-1-(6-((S)-3-Benzyl-5-oxomorpholino)-4-methylpyridin-2-yl)ethyl)amino)-6-chloropicolinic acid]
16 | 100 to 1000 | CC(Nc1ccc(F)nc1C(=O)O)c1cc(F)cc(N2C(=O)OC[C@@H]2Cc2ccccc2)c1 (stereo partly drawn) [Example 5, 3-((1-(3-((S)-4-Benzyl-2-oxooxazolidin-3-yl)-5-fluorophenyl)ethyl)amino)-6-fluoropicolinic acid]
17 | < 100 | C[C@@H](Nc1ccc(Cl)nc1C(=O)O)c1cc(F)cc(N2C(=O)OC[C@@H]2Cc2ccccc2)c1 [Example 10, 3-(((R)-1-(3-((S)-4-Benzyl-2-oxooxazolidin-3-yl)-5-fluorophenyl)ethyl)amino)-6-chloropicolinic acid]
18 | 100 to 1000 | Cc1cc([C@@H](C)Nc2ccc(Cl)nc2C(=O)O)nc(N2C(=O)OC[C@@H]2Cc2ccn(C)n2)c1 [Example 33, 6-Chloro-3-(((R)-1-(4-methyl-6-((S)-4-((1-methyl-1H-pyrazol-3-yl)methyl)-2-oxooxazolidin-3-yl)pyridin-2-yl)ethyl)amino)picolinic acid]
19 | 100 to 1000 | Cc1cccc(C[C@H]2COC(=O)N2c2cc(F)cc([C@@H](C)Nc3ccc(Cl)nc3C(=O)O)c2)c1 [Example 62, 6-Chloro-3-(((R)-1-(3-fluoro-5-((S)-4-(3-methylbenzyl)-2-oxooxazolidin-3-yl)phenyl)ethyl)amino)picolinic acid]
20 | 100 to 1000 | CC(Nc1ccc(F)nc1C(=O)O)c1cc(Cl)cc(N2C(=O)OC[C@@H]2Cc2ccccc2)c1 (stereo partly drawn) [Example 7, 3-((1-(3-((S)-4-Benzyl-2-oxooxazolidin-3-yl)-5-chlorophenyl)ethyl)amino)-6-fluoropicolinic acid]

Same assay, conditions: T-47D (heterozygous PIK3CA H1047R) cells, two hours of treatment, pAKT Ser473 HTRF; read-out: T47D pAKT IC50

Row | IC50 [nM] | SMILES
21 | < 100 | Cc1cc([C@@H](C)Nc2ccc(Cl)nc2C(=O)O)nc(N2C(=O)OC[C@@H]2Cc2cnn3ccccc23)c1 [Example 46, 6-Chloro-3-(((R)-1-(4-methyl-6-((S)-2-oxo-4-(pyrazolo[1,5-α]pyridin-3-ylmethyl)oxazolidin-3-yl)pyridin-2-yl)ethyl)amino)picolinic acid]
22 | 100 to 1000 | Cc1cc([C@@H](C)Nc2ccc(Cl)nc2C(=O)O)nc(N2C(=O)OC[C@@H]2Cc2cccn3ccnc23)c1 [Example 44, 6-Chloro-3-(((R)-1-(6-((S)-4-(imidazo[1,2-α]pyridin-8-ylmethyl)-2-oxooxazolidin-3-yl)-4-methylpyridin-2-yl)ethyl)amino)picolinic acid]
